Source: patent publication US20230391752A1, “PYRROLIDINE-3-CARBOXAMIDE DERIVATIVES AND RELATED USES” (Chulalongkorn University, priority 2020, published 2023)

Tested on: HBV
Experiment: In vitro anti-HBV activity in HepG2.2.15 cell line (intracellular HBV DNA by qPCR at 1 μM)
Assay type: cell-based
Conditions: Hepatitis B virus, 144 h; HepG2.2.15 cells, 1 μM compound, 6 days, intracellular HBV DNA as percentage compared to vehicle control (0.5% DMSO)
Method: The stable transfected HBV cell line, called HepG2.2.15 cells was a valuable model with high reproducibility and commonly used for drug screening. To identify the anti-HBV activity, HepG2.2.15 cells were seeded at 5×10^5 cells/well with high glucose Dulbecco's modified Eagle medium (DMEM) containing 10% heat inactivated fetal bovine serum (FBS), 300 mg/L G418, non-essential amino acids (NEAA) 100 units/ml Antibiotic-Antimycotic, and allowed to stand for an overnight in an incubator set at 37° C. and 5% C02. HepG2.2.15 cells in each well were treated with the medium containing a compound (1 μM with 0.5% dimethyl sulfoxide (DMSO final concentration) for three days in the incubator. After that the medium was removed and fresh medium containing the compound was added to the cells for another 3 days. After 6 days of treatment, intracellular HBV DNA was extracted and determined by using quantitative real-time PCR (qPCR) technique with specific primers. Intrahepatic HBV DNA viral load was reported as percentage compared to vehicle control (0.5% DMSO) as shown in Table A.
“B” means % ranging between 80 and 90; “C” means % ranging between 70 and 80; “D” means % ranging between 60 and 70; “E” means % ranging between 45 and 60, “F” means %<45.

Row | Compound | activity at 1 µM [%]
1 | CC(O)c1c[nH]c(C(=O)N2CC[C@H](C(=O)Nc3cc(F)c(F)c(F)c3)C2)c1 (stereo partly drawn) [Example 39, (3S)-1-(4-(1-hydroxyethyl)-1H-pyrrole-2-carbonyl)-N-(3,4,5-trifluorophenyl)pyrrolidine-3-carboxamide] | 70 to 80
2 | N#Cc1c[nH]c(C(=O)N2CC[C@H](C(=O)Nc3ccc(F)c(Cl)c3)C2)c1 [Example 40, (S)—N-(3-chloro-4-fluorophenyl)-1-(4-cyano-1H-pyrrole-2-carbonyl)pyrrolidine-3-carboxamide] | > 90
3 | N#Cc1cc(NC(=O)[C@H]2CCN(C(=O)c3[nH]c4ccccc4c3Cl)C2)ccc1F [Example 43, (S)-1-(3-chloro-1H-indole-2-carbonyl)-N-(3-cyano-4-fluorophenyl)pyrrolidine-3-carboxamide] | 45 to 60
4 | Cc1ccc(C(=O)N2CC[C@H](C(=O)Nc3cc(F)c(F)c(F)c3)C2)s1 [Example 44, (S)-1-(5-methylthiophene-2-carbonyl)-N-(3,4,5-trifluorophenyl)pyrrolidine-3-carboxamide] | 70 to 80
5 | O=C(Nc1cc(F)c(F)c(F)c1)[C@H]1CCN(C(=O)c2cc3cnccc3[nH]2)C1 [Example 46, (S)-1-(1H-pyrrolo[3,2-c]pyridine-2-carbonyl)-N-(3,4,5-trifluorophenyl)pyrrolidine-3-carboxamide] | 60 to 70
6 | O=C(Nc1cc(F)c(F)c(F)c1)[C@H]1CCN(C(=O)c2cc3ccncc3[nH]2)C1 [Example 47, (S)-1-(1H-pyrrolo[2,3-c]pyridine-2-carbonyl)-N-(3,4,5-trifluorophenyl)pyrrolidine-3-carboxamide] | 80 to 90
7 | O=C(Nc1cc(F)c(F)c(F)c1)[C@H]1CCN(C(=O)c2ccc[nH]2)C1 [Example 48, (S)-1-(1H-pyrrole-2-carbonyl)-N-(3,4,5-trifluorophenyl)pyrrolidine-3-carboxamide] | 80 to 90
8 | O=C(Nc1cc(F)c(F)c(F)c1)[C@H]1CCN(C(=O)c2cc3cc(F)c(F)cc3[nH]2)C1 [Example 49, (S)-1-(5,6-difluoro-1H-indole-2-carbonyl)-N-(3,4,5-trifluorophenyl)pyrrolidine-3-carboxamide] | > 90
9 | N#Cc1ccc(C(=O)N2CC[C@H](C(=O)Nc3cc(F)c(F)c(F)c3)C2)[nH]1 [Example 50, (S)-1-(5-cyano-1H-pyrrole-2-carbonyl)-N-(3,4,5-trifluorophenyl)pyrrolidine-3-carboxamide] | 70 to 80
10 | Cc1ccc(C(=O)N2CC[C@H](C(=O)Nc3cc(F)c(F)c(Br)c3)C2)[nH]1 [Example 51, (S)—N-(3-bromo-4,5-difluorophenyl)-1-(5-methyl-1H-pyrrole-2-carbonyl)pyrrolidine-3-carboxamide] | 45 to 60
11 | O=C(Nc1cc(F)c(F)c(Br)c1)[C@H]1CCN(C(=O)c2cc3cnccc3[nH]2)C1 [Example 53, (S)—N-(3-bromo-4,5-difluorophenyl)-1-(1H-pyrrolo[3,2-c]pyridine-2-carbonyl)pyrrolidine-3-carboxamide] | 70 to 80
12 | O=C(Nc1cc(F)c(F)c(F)c1)[C@H]1CCN(C(=O)c2cc3cccnc3[nH]2)C1 [Example 54, (S)-1-(1H-pyrrolo[2,3-b]pyridine-2-carbonyl)-N-(3,4,5-trifluorophenyl)pyrrolidine-3-carboxamide] | 70 to 80
13 | Cc1ccc2[nH]c(C(=O)N3CC[C@H](C(=O)Nc4cc(F)c(F)c(F)c4)C3)cc2c1 [Example 55, (S)-1-(5-methyl-1H-indole-2-carbonyl)-N-(3,4,5-trifluorphenyl)pyrrolidine-3-carboxamide] | > 90
14 | O=C(Nc1cc(F)c(F)c(F)c1)[C@H]1CCN(C(=O)c2ccc(CO)[nH]2)C1 [Example 56, (S)-1-(5-(hydroxymethyl)-1H-pyrrole-2-carbonyl)-N-(3,4,5-trifluorophenyl)pyrrolidine-3-carboxamide] | > 90
15 | O=C(Nc1cc(F)c(F)c(F)c1)[C@H]1CCN(C(=O)c2cc3cc(F)ccc3[nH]2)C1 [Example 57, (S)-1-(5-fluoro-1H-indole-2-carbonyl)-N-(3,4,5-trifluorophenyl)pyrrolidine-3-carboxamide] | > 90
16 | Cc1ccc(C(=O)N2CC[C@H](C(=O)Nc3cc(F)c(F)c(Br)c3)[C@@H]2C)[nH]1 [Example 58, (2S,3S)—N-(3-bromo-4,5-difluorophenyl)-2-methyl-1-(5-methyl-1H-pyrrole-2-carbonyl)pyrroline-3-carboxamide] | 70 to 80
17 | O=C(Nc1cc(F)c(F)c(F)c1)[C@H]1CCN(C(=O)c2[nH]c3ncccc3c2Cl)C1 [Example 59, (S)-1-(3-chloro-1H-pyrrolo[2,3-b]pyridine-2-carbonyl)-N-(3,4,5-trifluorophenyl)pyrrolidine-3-carboxamide] | 45 to 60

Row | Compound | activity at 1 µM [%]
18 | CC(C)c1ccc(C(=O)N2CC[C@H](C(=O)Nc3cc(F)c(F)c(F)c3)C2)[nH]1 [Example 61, (S)-1-(5-isopropyl-1H-pyrrole-2-carbonyl)-N-(3,4,5-trifluorophenyl)pyrrolidine-3-carboxamide] | 60 to 70
19 | Cc1ccc(C(=O)N2CC[C@H](C(=O)Nc3cc(F)c(F)c(Cl)c3)C2)[nH]1 [Example 62, (S)—N-(3-chloro-4,5-difluorophenyl)-1-(5-methyl-1H-pyrrole-2-carbonyl)pyrrolidine-3-carboxamide] | 45 to 60
20 | N#Cc1c(C(=O)N2CC[C@H](C(=O)Nc3cc(F)c(F)c(F)c3)C2)[nH]c2ncccc12 [Example 63, (S)-1-(3-cyano-1H-pyrrolo[2,3-b]pyridine-2-carbonyl)-N-(3,4,5-trifluorophenyl)pyrrolidine-3-carboxamide] | 70 to 80
21 | C[C@H]1[C@@H](C(=O)Nc2cc(F)c(F)c(F)c2)CCN1C(=O)c1cc2ncccc2[nH]1 [Example 64, (2S,3S)-2-methyl-1-(1H-pyrrolo[3,2-b]pyridine-2-carbonyl)-N-(3,4,5-trifluorophenyl) pyrrolidine-3-carboxamide] | 70 to 80
22 | Cc1ccc(C(=O)N2CC[C@H](C(=O)Nc3ccc(F)c(C#N)c3)[C@@H]2C)[nH]1 [Example 66, (2S,3S)—N-(3-cyano-4-fluorophenyl)-2-methyl-1-(5-methyl-1H-pyrrole-2-carbonyl)pyrrolidine-3-carboxamide] | 45 to 60
23 | O=C(Nc1cc(F)c(F)c(F)c1)[C@H]1CCN(C(=O)c2nc3cccnc3[nH]2)C1 [Example 67, (S)-1-(3H-imidazo[4,5-b]pyridine-2-carbonyl)-N-(3,4,5-trifluorophenyl)pyrrolidine-3-carboxamide] | 45 to 60
24 | Cc1cc(NC(=O)[C@H]2CCN(C(=O)c3nc4ccccc4[nH]3)C2)ccc1F [Example 68, (S)-1-(1H-benzo[d]imidazole-2-carbonyl)-N-(4-fluoro-3-methylphenyl)pyrrolidine-3-carboxamide] | < 45
25 | O=C(Nc1ccc(F)c(Cl)c1)[C@H]1CCN(C(=O)c2nc3cccnc3[nH]2)C1 [Example 69, (S)—N-(3-chloro-4-fluorophenyl)-1-(3H-imidazo[4,5-b]pyridine-2-carbonyl)pyrrolidine-3-carboxamide] | 70 to 80
26 | O=C(NCc1cnc(Cl)s1)[C@H]1CCN(C(=O)c2[nH]c3ccccc3c2Cl)C1 [Example 71, (S)-1-(3-chloro-1H-indole-2-carbonyl)-N-((2-chlorothiazol-5-yl)methyl)pyrrolidine-3-carboxamide] | 70 to 80
27 | C[C@H]1[C@@H](C(=O)Nc2cc(F)c(F)c(F)c2)CCN1C(=O)c1[nH]c2ccccc2c1CO [Example 72, (2S,3S)-1-(3-(hydroxymethyl)-1H-indole-2-carbonyl)-2-methyl-N-(3,4,5-trifluorophenyl)pyrrolidine-3-carboxamide] | 60 to 70
28 | O=C(Nc1cc(F)c(F)c(F)c1)[C@H]1CCN(C(=O)c2ccc(C3CC3)[nH]2)C1 [Example 73, (S)-1-(5-cyclopropyl-1H-pyrrole-2-carbonyl)-N-(3,4,5-trifluorophenyl)pyrrolidine-3-carboxamide] | 45 to 60
29 | N#Cc1cc(NC(=O)[C@H]2CCN(C(=O)c3ccc(-c4cccnc4)[nH]3)C2)ccc1F [Example 75, (S)—N-(3-cyano-4-fluorophenyl)-1-(5-(pyridin-3-yl)-1H-pyrrole-2-carbonyl)pyrrolidine-3-carboxamide] | 60 to 70
30 | N#Cc1cc(NC(=O)[C@H]2CCN(C(=O)c3ccc(-c4ccc(F)cc4)[nH]3)C2)ccc1F [Example 76, (S)—N-(3-cyano-4-fluorophenyl)-1-(5-(4-fluorophenyl)-1H-pyrrole-2-carbonyl)pyrrolidine-3-carboxamide] | 45 to 60
31 | O=C(Nc1cc(F)c(F)c(F)c1)[C@H]1CCN(C(=O)c2ccc(-c3ccncc3)[nH]2)C1 [Example 77, (S)-1-(5-(pyridin-4-yl)-1H-pyrrole-2-carbonyl)-N-(3,4,5-trifluorophenyl)pyrrolidine-3-carboxamide] | < 45
32 | N#Cc1cc(NC(=O)[C@H]2CCN(C(=O)c3ccc(-c4ccncc4)[nH]3)C2)ccc1F [Example 78, (S)—N-(3-cyano-4-fluorophenyl)-1-(5-(pyridin-4-yl)-1H-pyrrole-2-carbonyl)pyrrolidine-3-carboxamide] | 70 to 80
33 | O=C(Nc1cc(F)c(F)c(F)c1)[C@H]1CCN(C(=O)c2ccc(-c3cncnc3)[nH]2)C1 [Example 79, (S)-1-(5-(pyrimidin-5-yl)-1H-pyrrole-2-carbonyl)-N-(3,4,5-trifluorophenyl)pyrrolidine-3-carboxamide] | < 45
